Assay results as given in publication PMC5342555, “ATAD2 is an epigenetic reader of newly synthesized histone marks during DNA replication” (Oncotarget, 2016).
“Also recorded” adds a separate entry of the source.

How the values were obtained:
endogenous ATAD2 = test: Peptide pull down from MCF7 nuclear extract; format: binding; conditions: immobilized histone peptides, nuclear extract from MCF7 cells
Experimental: H4 peptides (1-25) conjugated with Biotin was immobilized on Streptavidin-coupled Dynabeads for 2 hours at 4 °C and incubated with nuclear extract from MCF7 cells. Nuclear extract was prepared by first isolating nucleus in hypotonic buffer (10 mM Tris-HCl pH 8.5, 10 mM NaCl, 0.5 mM TCEP and 0.1 % NP-40) and disrupting nuclear envelop in high salt buffer (20 mM Tris-HCl pH 8.5, 420 mM NaCl, 0.5 mM TCEP, 0.1 % Triton X-100, 25 % Glycerol) for 2 hours at 4 °C. Soluble nuclear extract was harvested by centrifugation at 20000 g for 20 min and diluted to 1:3 in buffer without NaCl in order to achieve physiological salt concentration, 140 mM. The nuclear extract was incubated with the immobilized peptides on the Streptavidin-Dynabeads overnight at 4 °C. Next day, the beads were washed three times with washing buffer (20 mM Tris-HCl pH 8.5, 140 mM NaCl, 0.5 mM TCEP, 0.1 % Triton X-100, 25 % Glycerol) and twice with high salt buffer. Bound proteins were recovered by boiling the beads in 1X sample buffer for 5 min. at 95 °C and analyzed by SDS-PAGE and Western Blotting. For direct binding experiments 1 μM of immobilized histone peptides on Streptavidin-Dynabeads were incubated with indicated amounts of ligands for 2 hours at 4 °C. After stringent washing as described above, bound proteins were analyzed in Western Blotting.

GST-ATAD2-BD WT = test: TR-FRET binding of biotinylated peptides to WT bromodomain; parameters: species or system human; conditions: for interaction with WT BD (TR-FRET, Figure 5C): 10 nM GST-ATAD2-BD WT, peptides at 100 nM and 1 μM
Experimental: (§1) TR-FRET measurements of GST-ATAD2 BD^981-1108 binding to the biotinylated synthetic peptides (Anaspec and Biosyntan) described in Supplementary Table S1 (SI Materials and Methods) were basically carried out as described recently for BRD4. For binding and competition experiments the concentration of GST-ATAD2 was 10 nM. Biotinylated peptides were tested in binding experiments at 100 nM and 1 μM, whereas the biotinylated H4K12ac tracer ([…]-K(Ac)-[…]-Biotin) was used at 50 nM in competition assays. […] All assays were performed in 50 mM HEPES pH 7.5, 100 mM NaCl, 50 mM KF, 0.25 mM CHAPS, 0.05 % BSA and 1 mM DTT and protein-peptide equilibrium complexes were detected with 10 nM of Anti-GST-XL665 MAb conjugate (Cisbio) and 2.5 nM of SA-Eu3+ Chelate (Perkin Elmer) as TR-FRET acceptor and donor molecules respectively. Raw fluorescence signals were acquired with a Pherastar FS microtiter plate reader (BMG) with 337 nm (excitation), 622 nm (donor emission) and 665 nm (acceptor emission). HTRF® ratio values were calculated as defined in the instrument software and normalized with low and high controls whenever appropriate. Competition experiments were analyzed with a four parameter logistic equation as defined in the GraphPad analysis software (http://www.graphpad.com/guides/prism/6/curve-fitting).

GST-ATAD2-BD Mut = test: TR-FRET binding of biotinylated peptides to mutant bromodomain; parameters: species or system human; conditions: 10 nM GST-ATAD2-BD Mut
Experimental: as §1

HEK293 cells = test: Isolation of proteins on nascent DNA (iPOND) after cycloheximide; format: cell-based
Experimental: iPOND was performed as previously described. Briefly, exponentially growing 1 x 10^8 of HEK 293 cells were incubated with 10 μM EdU (5-ethynyl-2'-deoxyuridine) and fixed in 1 % formaldehyde for 20 min at RT after 20 min (nascent chromatin) or chased for 2 h in fresh medium before fixation (mature chromatin). Crosslinking was stopped by addition of 0.125 M glycine and cells were permeabilized in 0.25 % Triton-X-100 for 30 min at RT followed by Click reaction to couple biotin to EdU. Cells were incubated in Click reaction buffer (0.01 mM biotin azide, 10 mM sodium ascorbate, 2 mM CuSO4 in PBS) for 1-2 h at RT with constant mixing. Cells were lysed in lysis buffer (1 % SDS in 50 mM Tris pH 8.0) and chromatin was solubilized by sonication in BIORUPTOR (Diagenode) for 4 min with medium frequency and 0.5 intervals at 4 °C. Biotinylated chromatin fragments were purified on streptavidine-dynabeads (ThermoFisher) by overnight end-over-end rotation at 4 °C. After stringent washing including once with 1 M NaCl the bound chromatin was released and crosslinking was reversed by boiling the beads in 2X LDS buffer for 40 min at 100 °C. Samples were dissolved in NuPAGE Bis-Tris gel and Western blot was performed.

MCF7 cells = test: Cell growth, viable cells by AlamarBlue; format: cell-based; conditions: MCF7, 4 days after transfection, mean ± SD, n = 3

For “H4 (1-25): biotinylated unmodified histone H4 peptide, AnaSpec Cat. No. 65242-1”, the “interaction with endogenous ATAD2 (pull down, Western blotting)” value (endogenous ATAD2) was “not”.
“H4K5ac (1-25): biotinylated histone H4 peptide acetylated at K5, AnaSpec Cat. No. 65229-1” was tested, and the “interaction with WT BD (TR-FRET, Figure 5C)” value (from here on “interaction with WT BD”) (GST-ATAD2-BD WT) was “strong binding; also recorded: interact” and the “interaction with mutant BD (TR-FRET, Figure 5C)” value (shortened to “interaction with mutant BD”) (GST-ATAD2-BD Mut) was “not with mutant BD”.
`C[C@@H]1C[C@@H]([C@H](O)CC2CC(=O)NC(=O)C2)C(=O)[C@@H](C)C1` [cycloheximide] was tested, and the “recruitment of ATAD2 to nascent chromatin” value (HEK293 cells; HEK293, 250 μg/ml CHX […] before 10 μM EdU 20 min 37 °C, iPOND) was “abrogated”, the “newly synthesized histone H4 acetylated at K12 on nascent chromatin” value (HEK293 cells; HEK293, CHX […], iPOND) was “lost” and the “total level of ATAD2” value (HEK293 cells; HEK293, CHX, Western blotting before crosslinking) was “unaffected”.
With “5’-AGAUCACCCUCCUUAAAUAUU-3’ [PLK1]” the “viable cells, fluorescence intensity normalized to control siRNA treated cells” value (MCF7 cells) was 38.5%.
For “H4K5,12diac (1-25): biotinylated histone H4 peptide di-acetylated at K5 and K12”, the “interaction with endogenous ATAD2 (pull down, Western blotting)” value (endogenous ATAD2) was “interacts”, the “interaction with WT BD” value (GST-ATAD2-BD WT) was “interact” and the “interaction with mutant BD” value (GST-ATAD2-BD Mut) was “not with mutant BD”.
“H4K5/8/12/16ac (1-25): biotinylated histone H4 peptide acetylated at K5,8,12,16, AnaSpec Cat. No. 65248-1” was tested, and the “interaction with WT BD” value (GST-ATAD2-BD WT) was “interact” and the “interaction with mutant BD” value (GST-ATAD2-BD Mut) was “not with mutant BD”.
In the case of “H4K12ac (1-25): biotinylated histone H4 peptide acetylated at K12, AnaSpec Cat. No. 65208-1”, the “interaction with WT BD” value (GST-ATAD2-BD WT) is reported as “strong binding; also recorded: interact”, the “interaction with BD of ATAD2 (TR-FRET, Figure 5B)” value (GST-ATAD2-BD WT; 1 μM biotin-labelled peptide, 10 nM GST-ATAD2 BD, GST as control) is reported as “strong interaction” and the “interaction with mutant BD” value (GST-ATAD2-BD Mut) is reported as “not with mutant BD”.
